ChEMBL document CHEMBL1201862, “PubChem BioAssay data set” (2004)
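Values below derive from 48-hour exposures of cells grown in 96-well plates, with endpoints linearly interpolated between the two concentrations bracketing the appropriate inhibition level. GI50 is the concentration that inhibits growth by half.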 The source made the active and inactive calls. No stated cut-off is given here; in the data, active = GI50 up to about 1.1 µM and inactive = higher.

Assays:
Assay in all cases: NCI anticancer screen, dose series, 48 h
[1] = system: SK-OV-3
[2] = system: SF-539
[3] = system: DLD-1
[4] = system: UO-31
[5] = system: SR
[6] = system: CCRF-CEM
[7] = system: A498
[8] = system: MDA-N
[9] = system: A549
[10] = system: RPMI-8226
[11] = system: SW-620
[12] = system: SF-295
[13] = system: KM-20L2
[14] = system: UACC-257
[15] = system: 786-0
[16] = system: KM12
[17] = system: SK-MEL-5
[18] = system: SNB-75
[19] = system: MOLT-4
[20] = system: MCF7

| SMILES | GI50 [1] | GI50 [2] | GI50 [3] | GI50 [4] | GI50 [5] | GI50 [6] | GI50 [7] | GI50 [8] | GI50 [9] | GI50 [10] | GI50 [11] | GI50 [12] | GI50 [13] | GI50 [14] | GI50 [15] | GI50 [16] | GI50 [17] | GI50 [18] | GI50 [19] | GI50 [20] |
| --- | --- | --- | --- | --- | --- | --- | --- | --- | --- | --- | --- | --- | --- | --- | --- | --- | --- | --- | --- | --- |
| N#CC(NNC(=O)c1ccccc1O)c1c(O)ccc2ccccc12 (stereo not given) | 4.68 µM (inactive) | 4.63 µM (inactive) | 2.06 µM (inactive) | 2.92 µM (inactive) | 1.46 µM (inactive) | 0.962 µM (active) | 34.7 µM (inactive) | 5.16 µM (inactive) | 2.94 µM (inactive) | 3.48 µM (inactive) | 4.3 µM (inactive) | 4.78 µM (inactive) | 17.9 µM (inactive) | 3.67 µM (inactive) | 4.56 µM (inactive) | 4.84 µM (inactive) | 2.67 µM (inactive) | 7.31 µM (inactive) | 2.26 µM (inactive) | 4.5 µM (inactive) |
| COc1ccc(NCc2cc(OC)cc(OC)c2)cc1 | 30.1 µM (inactive) | 16.3 µM (inactive) | 32.6 µM (inactive) | 35.9 µM (inactive) | 13.1 µM (inactive) | 25.2 µM (inactive) | 27.5 µM (inactive) | – | 17.6 µM (inactive) | 17 µM (inactive) | 8.32 µM (inactive) | 20.8 µM (inactive) | 10.7 µM (inactive) | 40.6 µM (inactive) | 48.1 µM (inactive) | 5.7 µM (inactive) | 9.91 µM (inactive) | 23.4 µM (inactive) | 17.1 µM (inactive) | – |
| CC(C)CCCC(C)[C@H]1CCC2[C@H]3C(CC[C@@]21C)[C@@]1(C)CCC=C[C@]12C[C@@H]2[C@@H]3O (stereo not given in full) | > 100 µM (inactive) | > 100 µM (inactive) | > 100 µM (inactive) | > 100 µM (inactive) | > 100 µM (inactive) | > 100 µM (inactive) | > 100 µM (inactive) | – | > 100 µM (inactive) | > 100 µM (inactive) | > 100 µM (inactive) | > 100 µM (inactive) | > 100 µM (inactive) | > 100 µM (inactive) | > 100 µM (inactive) | > 100 µM (inactive) | > 100 µM (inactive) | > 100 µM (inactive) | > 100 µM (inactive) | – |
| C#CCN(N=O)C(=O)NCCCCC(NC(C)=O)C(=O)NCc1ccccc1 (stereo not given) | > 100 µM (inactive) | > 100 µM (inactive) | > 100 µM (inactive) | > 100 µM (inactive) | 53 µM (inactive) | 28.4 µM (inactive) | > 100 µM (inactive) | – | > 100 µM (inactive) | 51.2 µM (inactive) | > 100 µM (inactive) | > 100 µM (inactive) | > 100 µM (inactive) | > 100 µM (inactive) | > 100 µM (inactive) | > 100 µM (inactive) | > 100 µM (inactive) | > 100 µM (inactive) | 28.4 µM (inactive) | – |
| CC(C)[Si](OCC1CC(C#N)OC(C)(C)O1)(C(C)C)C(C)C (stereo not given) | 21.3 µM (inactive) | 27.1 µM (inactive) | 44.4 µM (inactive) | 20.7 µM (inactive) | 18.1 µM (inactive) | 19.5 µM (inactive) | 6.3 µM (inactive) | – | 30.8 µM (inactive) | 14.2 µM (inactive) | 18.9 µM (inactive) | 14.9 µM (inactive) | 21.9 µM (inactive) | 17.3 µM (inactive) | 18.8 µM (inactive) | 17.5 µM (inactive) | 15.5 µM (inactive) | 31.9 µM (inactive) | 19.6 µM (inactive) | – |
| CC(=O)Nc1ccc(C2=N/C(=C\c3ccc(Cl)cc3)C(=O)O2)cc1 | 30.7 µM (inactive) | > 100 µM (inactive) | 31.9 µM (inactive) | 26.4 µM (inactive) | 18.7 µM (inactive) | 26.7 µM (inactive) | > 100 µM (inactive) | – | > 100 µM (inactive) | 40.2 µM (inactive) | 8.91 µM (inactive) | > 100 µM (inactive) | 84.7 µM (inactive) | 45.7 µM (inactive) | 20.8 µM (inactive) | 33.1 µM (inactive) | 77.8 µM (inactive) | 40.4 µM (inactive) | 20.7 µM (inactive) | – |
| CS(=O)(=O)OC1CCC2(C#N)CCC1C2=O (stereo not given) | > 100 µM (inactive) | > 100 µM (inactive) | > 100 µM (inactive) | > 100 µM (inactive) | 19.8 µM (inactive) | > 100 µM (inactive) | > 100 µM (inactive) | – | > 100 µM (inactive) | 21.9 µM (inactive) | – | > 100 µM (inactive) | 54.5 µM (inactive) | > 100 µM (inactive) | 79.6 µM (inactive) | > 100 µM (inactive) | > 100 µM (inactive) | > 100 µM (inactive) | > 100 µM (inactive) | – |
| CCc1cccc(C)c1NC(=S)NC(=O)c1ccccc1C(=O)NC(=S)Nc1c(C)cccc1CC | > 100 µM (inactive) | > 100 µM (inactive) | > 100 µM (inactive) | > 100 µM (inactive) | 38.4 µM (inactive) | 36.3 µM (inactive) | > 100 µM (inactive) | – | 90.4 µM (inactive) | 60 µM (inactive) | 75.3 µM (inactive) | 57.7 µM (inactive) | 91.8 µM (inactive) | > 100 µM (inactive) | > 100 µM (inactive) | 77.1 µM (inactive) | > 100 µM (inactive) | > 100 µM (inactive) | 53.7 µM (inactive) | – |
